The source of these data is US11911434B2, “Stable antibody-drug conjugate, preparation method therefor, and use thereof” (GENEQUANTUM HEALTHCARE (SUZHOU) CO., LTD., priority 2014, dated 2024).

Test [1] deals with cells with low ErbB2/Her2 expression (MCF-7, MDA-MB-468). As to the kind of experiment: Tumor cell proliferation, cells with low ErbB2/Her2 expression. Format: cell-based, human. Particulars: 0.005-30 nM. The procedure:
(§1) 1) ErbB2/Her2 low expressing human breast cancer cells MCF-7, MDA-MB-468, ErbB2/Her2 high expressing human breast cancer cells BT-474, SK-BR-3, HCC1954, human ovarian cancer cells SK-OV-3, human gastric cancer cell NCI-N87 was seeded into a 96-well plate at 100 μl/well (containing 1000 to 10000 cells), and incubated in a cell culture incubator overnight (37° C., 5% CO2, 95% air, 100% humidity).
(§2) 3) The cell plate was removed from the incubator, equilibrated for about 30 minutes to room temperature. Each well was added 100 μl CellTiter Glo reagent, shocked in an oscillator for 2 min, then left stand for 10 min at room temperature in dark, the relative light units (RLU) is measured with a BioTech Gen5 microplate reader.

For test [2], the system named is SK-BR-3 cells. Nature of the test: Tumor cell proliferation, CellTiter Glo, SK-BR-3. Format: cell-based, human. The following applies: SK-BR-3, 48-96 h; read-out: Inhibition effects on tumor cell proliferation (IC50). The procedure:
as §1, §2

The subject of test [3] is MDA-MB-468 cells. Nature of the test: Tumor cell proliferation, CellTiter Glo, MDA-MB-468. Format: cell-based, human. The following applies: MDA-MB-468, 48-96 h; read-out: Inhibition effects on tumor cell proliferation (IC50). The procedure: as §1, §2
Test [4] relates to HCC-1954 cells. Nature of the test: Tumor cell proliferation, CellTiter Glo, HCC1954. Format: cell-based, human. The following applies: HCC-1954, 48-96 h; read-out: Inhibition effects on tumor cell proliferation (IC50). As for the experimental part:
as §1, §2
(ATP-based viability assays read luminescence as a measure of living cells.)

Test [5] concerns cells with high ErbB2/Her2 expression (BT-474, SK-BR-3, HCC1954, SK-OV-3, NCI-N87). Nature of the test: Tumor cell proliferation, cells with high ErbB2/Her2 expression. In kind it is cell-based, human. The following applies: 0.005-30 nM. The procedure: as §1, §2
Test [6] concerns SK-OV-3 cells. Nature of the test: Tumor cell proliferation, CellTiter Glo, SK-OV-3. Format: cell-based, human. The following applies: SK-OV-3, 48-96 h; read-out: Inhibition effects on tumor cell proliferation (IC50). As for the experimental part: as §1, §2
For test [7], the system named is MCF-7 cells. Nature of the test: Tumor cell proliferation, CellTiter Glo, MCF-7. Particulars: MCF-7, 48-96 h; read-out: Inhibition effects on tumor cell proliferation (IC50). Format: cell-based, human. The procedure:
as §1, §2

Test [8] deals with NCI-N87 cells. As to the kind of experiment: Tumor cell proliferation, CellTiter Glo, NCI-N87. In kind it is cell-based, human. The following applies: NCI-N87, 48-96 h; read-out: Inhibition effects on tumor cell proliferation (IC50). As for the experimental part: as §1, §2
Test [9] concerns BT-474 cells. Nature of the test: Tumor cell proliferation, CellTiter Glo, BT-474. Format: cell-based, human. Particulars: BT-474, 48-96 h; read-out: Inhibition effects on tumor cell proliferation (IC50). As for the experimental part: as §1, §2
Test [10] deals with HCC1954 xenograft. As to the kind of experiment: HCC1954 xenograft in nude mice. In kind it is in vivo, BALB/c nude mouse. Particulars: 5 mg/kg. The procedure:
The in vivo anti-tumor effect of the candidate ADC was determined using xenograft model of nude mice after administration of the candidate ADC.
1) HCC1954 breast cancer cells in the logarithmic growth phase were collected and adjusted with matrigel buffer (PBS: BD Matrigel=1:1) to a cell density of 2.5×10^7/ml. 0.2 ml of this prepared HCC1954 cell suspension was injected subcutaneously to the right scapula of each BALB/c nude mouse (6 to 8 week-old, SPF grade, female).
2) 7 days after cell inoculation, the diameter of the tumor was measured by caliper and the tumor volume was calculated according to the Formula: V=0.5a×b^2 (a is the longest diameter of the tumor, b is the shortest diameter of the tumor). […] Administration was via the tail vein injection, and the control group received an equal volume of the vehicle. […] The tumor volumes at each time point were calculated and compared between groups. At the same time, the T-C or T/C value was used as the index to evaluate the anti-tumor activity of each drug. T-C value is calculated as the follows: T is the average time (Days) when the average tumor volume of each treatment group reaches a preset size (500 mm^3), C is the average time (Day) when the average tumor volume of the controlled group reaches the preset size (500 mm^3). While T/C (percentage) is the index for tumor inhibition effect, T is the average tumor volume of all the drug treatment groups at a fixed time point, and C is the average tumor volume of the control group at the fixed time point.

As to `COc1cc2cc(c1Cl)N(C)C(=O)C[C@H](OC(=O)[C@H](C)N(C)C(=O)CCS)[C@]1(C)O[C@H]1[C@H](C)[C@@H]1C[C@@](O)(NC(=O)O1)[C@H](OC)/C=C/C=C(\C)C2` [DM1], the “inhibition effect on proliferation (in words)” value in test [1] and in [5] was “significant inhibition effect” each time. The IC50 in test [2] was 1.92 nM; in test [3], 4.22 nM; in test [4], 2.9 nM; in test [6], 1.59 nM; in test [7] it was 5.71 nM; in test [8] it was 7.18 nM. Also, the IC50 in test [9] turned out to be 16.3 nM.
As for ado-trastuzumab emtansine [Kadcyla], the “inhibition effect on proliferation (in words)” value in [1] was “only inhibits the proliferation of cells with low ErbB2/Her2 expression at high concentrations”. For the same compound, the IC50 in test [2] came out at 0.03 nM; in [4] it was 0.049 nM; in test [6], 0.049 nM; in test [8], 0.031 nM; in test [9] it was 0.144 nM. The “inhibition on ErbB2/Her2 positive breast cancer (in words)” value in test [10] was “significant inhibition”. For the same compound, in test [10] (10 days after administration), the “tumor volumes compared with control group” value is listed as “significantly smaller than control group”. The “Tumor Size at day 31 (Mean ± SEM)” value in test [10] (single tail vein injection, n=10) came out at 29 ± 4 mm^3. Further, the tumor regrowth result in test [10] (until 38 days after the administration) was “No sign of tumor regrowth”. The “T-C at 500 mm^3” value in [10] (time to reach 500 mm^3, treated minus control) was >17 days. Besides, in test [10] (treated / control average tumor volume), the T/C is recorded as 1.3%.

A word on the T/C: it is the result in the treated group divided by that in the control group, in per cent.
